According to the supplement of paper PMC8882468:

Experiments:
Assay in all cases: CTG-3D luminescence at 96 h relative to day-0 seeding control (ratio to day 0); higher = more growth / less cytotoxicity; PDxO 3D drug screen, 96 h, CTG-3D normalised to day-0 seeding control.
HCI-008 = system: HCI-008 (organoid from a HER2-enriched breast cancer xenograft)
HCI-017.E2 = system: HCI-017.E2 (organoid from an ER-positive breast cancer xenograft)
HCI-025 = system: HCI-025 (organoid from a breast cancer xenograft)
MDA-MB-231 = system: MDA-MB-231
HCI-005.E2 = system: HCI-005.E2 (organoid from a breast cancer xenograft with a HER2-positive history)
HCI-019 = system: HCI-019 (organoid from a triple-negative breast cancer xenograft)
HCI-016 = system: HCI-016 (organoid from a triple-negative breast cancer xenograft)

CS(=O)(=O)c1ccc(C(=O)Nc2ccc(Cl)c(-c3ccccn3)c2)c(Cl)c1 [vismodegib]
CTG-3D luminescence at 96 h
Conditions	12.5 pM	0.00025 µM	0.005 µM	0.1 µM	1 µM	10 µM	100 µM	625 fM
HCI-008, days in culture: 228	1.56	1.74	1.17	1.72	1.46	1.46	0.622	1.79
HCI-008, days in culture: 244	1.7	2.21	1.95	2.27	2.19	2.07	1.01	2.24
HCI-016, days in culture: 153	3.24	1.78	2.91	1.54	2.95	1.79	0.626	2.46
HCI-016, days in culture: 172	2.24	1.87	1.95	1.87	2.13	1.47	0.75	2.02
HCI-016, days in culture: 190	2.13	1.28	1.74	1.58	1.72	1.66	0.376	1.7
HCI-016, days in culture: 199	2.04	1.97	2.17	2.07	2.19	2.01	0.655	2.15
HCI-017.E2, days in culture: 85	2.49	2.32	2.96	2.5	2.32	1.76	0.842	2.14
HCI-019, days in culture: 110	1.59	1.68	1.23	2.46	1.99	2.18	1.03	2.06
HCI-019, days in culture: 131	2.17	2.54	3.59	3.93	2.82	2.53	1.56	3.4
HCI-019, days in culture: 152	3.1	2.87	2.59	1.83	2.08	1.82	0.857	1.86
HCI-025, days in culture: 172	3.09	1.78	3.88	2.18	2.97	1.37	0.368	2.37
HCI-025, days in culture: 209	1.85	2.63	2.69	1.56	2.47	1.4	0.0933	1.57
HCI-025, days in culture: 218	1.48	1.67	2.01	1.69	1.56	1.88	-0.104	1.87

CTG-3D luminescence at 96 h
Conditions	12.5 pM	0.00025 µM	0.005 µM	0.1 µM	1 µM	10 µM	100 µM	625 fM
HCI-005.E2	1.47	1.38	1.47	1.57	1.45	1.3	0.318	1.47
HCI-017.E2	1.53	1.93	2.01	1.8	1.65	1.67	0.824	1.88
MDA-MB-231	4.58	4.44	4.54	4.53	4.66	4.73	4	4.62

Cc1nc(-c2cn3c(n2)-c2ccc(-c4cnn(C(C)(C)C(N)=O)c4)cc2OCC3)n(C(C)C)n1 [taselisib]
CTG-3D luminescence at 96 h
Conditions	12.5 pM	0.00025 µM	0.005 µM	0.1 µM	1 µM	10 µM	100 µM	625 fM
HCI-008, days in culture: 228	1.62	1.54	1.28	0.687	0.439	0.314	0.174	1.8
HCI-008, days in culture: 244	1.38	1.94	1.92	0.848	0.448	0.358	0.123	2.25
HCI-016, days in culture: 153	3	1.97	2.05	1.75	1.93	1.68	1.08	2.05
HCI-016, days in culture: 172	2.1	1.26	1.83	1.06	1.32	0.704	0.881	1.53
HCI-016, days in culture: 190	1.8	1.3	1.49	1.25	1.07	0.971	0.254	1.2
HCI-016, days in culture: 199	1.68	1.68	1.69	1.49	1.48	0.98	0.362	1.95
HCI-017.E2, days in culture: 85	3.03	2.91	1.97	0.848	0.668	0.194	0.166	2.38
HCI-019, days in culture: 110	1.23	1.32	1.4	1.45	0.521	0.496	0.105	2.64
HCI-019, days in culture: 131	2.82	3.38	3.03	1.62	1.23	0.571	0.133	4.04
HCI-019, days in culture: 152	3.26	2.42	2.02	1.86	1.08	0.381	0.116	2.51
HCI-025, days in culture: 172	3.15	1.96	3.8	1.36	0.93	0.235	0.0865	1.92
HCI-025, days in culture: 209	1.6	2.39	1.79	1.16	0.455	0.267	0.0164	1.64
HCI-025, days in culture: 218	1.42	1.87	1.83	0.886	0.193	0.296	0.0322	1.54

CTG-3D luminescence at 96 h
Conditions	12.5 pM	0.00025 µM	0.005 µM	0.1 µM	1 µM	10 µM	100 µM	625 fM
HCI-005.E2	1.52	1.77	1.52	1.21	0.401	0.348	0.34	2.12
HCI-017.E2	1.88	1.78	1.32	0.638	0.448	0.204	0.178	2.06
MDA-MB-231	4.54	4.45	4.53	4.29	3.9	2.97	1.22	4.58

C[C@@H]1COCCN1c1cc(C2([S@](C)(=N)=O)CC2)nc(-c2cc[nH]c3nccc2-3)n1 [ceralasertib]
CTG-3D luminescence at 96 h
Conditions	12.5 pM	0.00025 µM	0.005 µM	0.1 µM	1 µM	10 µM	100 µM	625 fM
HCI-008, days in culture: 228	1.99	1.95	1.41	1.81	1.36	0.531	0.212	1.72
HCI-008, days in culture: 244	1.32	2.13	2.05	2.01	1.26	0.71	0.334	2.35
HCI-016, days in culture: 153	3.13	2.07	1.95	2.28	1.72	0.113	0.0761	2.11
HCI-016, days in culture: 172	2.3	1.91	1.66	1.88	1.12	0.141	0.0786	1.92
HCI-016, days in culture: 190	1.54	1.14	1.72	1.27	1.11	0.1	0.0608	1.28
HCI-016, days in culture: 199	1.42	1.55	1.36	1.25	0.986	0.0835	0.0684	1.6
HCI-017.E2, days in culture: 85	3.08	3.11	2.49	2.26	2.3	1.08	0.827	2.52
HCI-019, days in culture: 110	1.9	1.2	1.15	2	0.748	0.526	0.468	1.62
HCI-019, days in culture: 131	2.22	3.35	3.06	3.3	1.98	0.424	0.71	3.75
HCI-019, days in culture: 152	2.6	2.77	2.34	2.22	1.1	0.604	0.499	2.45
HCI-025, days in culture: 172	2.29	1.93	3.61	2.46	1.59	0.359	0.297	1.92
HCI-025, days in culture: 209	1.3	1.6	1.64	1	0.856	0.386	0.184	1.38
HCI-025, days in culture: 218	1.86	1.85	2.07	1.64	0.97	0.482	0.269	1.88

CTG-3D luminescence at 96 h
Conditions	12.5 pM	0.00025 µM	0.005 µM	0.1 µM	1 µM	10 µM	100 µM	625 fM
HCI-005.E2	1.83	1.7	1.86	1.9	1.16	0.849	0.6	1.78
HCI-017.E2	1.72	2.28	2.17	2.23	2.02	1.09	0.8168	2.165
MDA-MB-231	4.45	4.38	4.49	4.47	4.27	3.1	1.86	4.53
